Tested on: MOLT-4
Experiment: NCI one-dose assay, MOLT-4
Assay type: cell-based
Conditions: Homo sapiens; MOLT-4 (Leukemia), 10 uM single dose; read-out: Growth inhibition %
Procedure: (§1) All novel scaffolds 6a–j were carefully selected by the National Cancer Institute (NCI), Bethesda, USA, to elucidate their cytotoxic activity versus 60 human cancer cell lines at 10 µM as a single-dose concentration after a 48 h incubation period.
(§2) National Cancer Institution selected all the synthesized 6a–j (NCI), Bethesda, USA, for in vitro one-dose antitumor assay. The methodology protocol for the NCI anticancer screening was reported in detail elsewhere (http://www.dtp.nci.nih.gov). The anticancer assay was performed in full NCI 60 cell lines extracted from nine tumor cell lines, including leukemia, melanoma, lung, colon, CNS, ovarian, renal, prostate, and breast cancer cell lines.

Compound	inhibition at 10 µM [%]
O=C1Nc2ccc(Cl)cc2C1=Cc1ccc(OCC(=O)c2ccccc2)cc1 [Compound 6b, 5-Chloro-3-{4-[2-oxo-2 phenylethoxy]benzylidene}indolin-2-one]	13.4

Tested on: 60 human cancer cell lines
Experiment: NCI one-dose assay against sixty NCI cancer cell lines
Assay type: cell-based
Conditions: CAKI-1 (Renal Cancer), 10 uM single dose, read-out: Growth inhibition %
Procedure: as §1, §2

Compound	inhibition at 10 µM [%]
O=C1Nc2ccc(Cl)cc2C1=Cc1ccc(OCC(=O)c2ccccc2)cc1 [Compound 6b, 5-Chloro-3-{4-[2-oxo-2 phenylethoxy]benzylidene}indolin-2-one]	31.9

Same assay, conditions: HCT-15 (Colon Cancer), 10 uM single dose, read-out: Growth inhibition %

Compound	inhibition at 10 µM [%]
O=C1Nc2ccc(Cl)cc2C1=Cc1ccc(OCC(=O)c2ccccc2)cc1 [Compound 6b, 5-Chloro-3-{4-[2-oxo-2 phenylethoxy]benzylidene}indolin-2-one]	11.9

Same assay, conditions: HOP-62 (Non-Small Cell Lung Cancer), 10 uM single dose, read-out: Growth inhibition %

Compound	inhibition at 10 µM [%]
O=C1Nc2ccc(Cl)cc2C1=Cc1ccc(OCC(=O)c2ccccc2)cc1 [Compound 6b, 5-Chloro-3-{4-[2-oxo-2 phenylethoxy]benzylidene}indolin-2-one]	14.6

Same assay, conditions: HS 578T (Breast Cancer), 10 uM single dose, read-out: Growth inhibition %

Compound	inhibition at 10 µM [%]
O=C1Nc2ccc(Cl)cc2C1=Cc1ccc(OCC(=O)c2ccccc2)cc1 [Compound 6b, 5-Chloro-3-{4-[2-oxo-2 phenylethoxy]benzylidene}indolin-2-one]	13.7

Same assay, conditions: IGROV-1, IGROV1 (Ovarian Cancer), 10 uM single dose, read-out: Growth inhibition %

Compound	inhibition at 10 µM [%]
O=C1Nc2ccc(Cl)cc2C1=Cc1ccc(OCC(=O)c2ccccc2)cc1 [Compound 6b, 5-Chloro-3-{4-[2-oxo-2 phenylethoxy]benzylidene}indolin-2-one]	20.3

Same assay, conditions: MDA-MB-231, read-out: Growth inhibition %

Compound	inhibition at 10 µM [%]
O=C1Nc2ccc(Cl)cc2C1=Cc1ccc(OCC(=O)c2ccccc2)cc1 [Compound 6b, 5-Chloro-3-{4-[2-oxo-2 phenylethoxy]benzylidene}indolin-2-one]	15.5

Same assay, conditions: NCI-H226 (Non-Small Cell Lung Cancer), 10 uM single dose, read-out: Growth inhibition %

Compound	inhibition at 10 µM [%]
O=C1Nc2ccc(Cl)cc2C1=Cc1ccc(OCC(=O)c2ccccc2)cc1 [Compound 6b, 5-Chloro-3-{4-[2-oxo-2 phenylethoxy]benzylidene}indolin-2-one]	13.3

Same assay, conditions: OVCAR-3 (Ovarian Cancer), 10 uM single dose, read-out: Growth inhibition %

Compound	inhibition at 10 µM [%]
O=C1Nc2ccc(Cl)cc2C1=Cc1ccc(OCC(=O)c2ccccc2)cc1 [Compound 6b, 5-Chloro-3-{4-[2-oxo-2 phenylethoxy]benzylidene}indolin-2-one]	12.7

Same assay, conditions: PC-3 (Prostate Cancer), 10 uM single dose, read-out: Growth inhibition %

Compound	inhibition at 10 µM [%]
O=C1Nc2ccc(Cl)cc2C1=Cc1ccc(OCC(=O)c2ccccc2)cc1 [Compound 6b, 5-Chloro-3-{4-[2-oxo-2 phenylethoxy]benzylidene}indolin-2-one]	24.9

Same assay, conditions: SF-268 (CNS Cancer), 10 uM single dose, read-out: Growth inhibition %

Compound	inhibition at 10 µM [%]
O=C1Nc2ccc(Cl)cc2C1=Cc1ccc(OCC(=O)c2ccccc2)cc1 [Compound 6b, 5-Chloro-3-{4-[2-oxo-2 phenylethoxy]benzylidene}indolin-2-one]	11.3

Same assay, conditions: SK-OV-3 (Ovarian Cancer), 10 uM single dose, read-out: Growth inhibition %

Compound	inhibition at 10 µM [%]
O=C1Nc2ccc(Cl)cc2C1=Cc1ccc(OCC(=O)c2ccccc2)cc1 [Compound 6b, 5-Chloro-3-{4-[2-oxo-2 phenylethoxy]benzylidene}indolin-2-one]	11.9

Same assay, conditions: UACC-62 (Melanoma), 10 uM single dose, read-out: Growth inhibition %

Compound	inhibition at 10 µM [%]
O=C1Nc2ccc(Cl)cc2C1=Cc1ccc(OCC(=O)c2ccccc2)cc1 [Compound 6b, 5-Chloro-3-{4-[2-oxo-2 phenylethoxy]benzylidene}indolin-2-one]	25.1

Tested on: K-562
Experiment: NCI one-dose assay, K-562
Assay type: cell-based
Conditions: Homo sapiens, K562; K-562 (Leukemia), 10 uM single dose; read-out: Growth inhibition %
Procedure: as §1, §2

Compound	inhibition at 10 µM [%]
O=C1Nc2ccc(Cl)cc2C1=Cc1ccc(OCC(=O)c2ccccc2)cc1 [Compound 6b, 5-Chloro-3-{4-[2-oxo-2 phenylethoxy]benzylidene}indolin-2-one]	23.5

Tested on: MCF-7
Experiment: NCI one-dose assay, MCF-7
Assay type: cell-based, human
Conditions: Homo sapiens, MCF7, MCF7 (Breast Cancer), 10 uM single dose; read-out: Growth inhibition %
Procedure: as §1, §2

Compound	inhibition at 10 µM [%]
O=C1Nc2ccc(Cl)cc2C1=Cc1ccc(OCC(=O)c2ccccc2)cc1 [Compound 6b, 5-Chloro-3-{4-[2-oxo-2 phenylethoxy]benzylidene}indolin-2-one]	38

Tested on: UO-31
Experiment: NCI one-dose assay, UO-31
Assay type: cell-based
Conditions: Homo sapiens; UO-31 (Renal Cancer), 10 uM single dose; read-out: Growth inhibition %
Procedure: as §1, §2

Compound	inhibition at 10 µM [%]
O=C1Nc2ccc(Cl)cc2C1=Cc1ccc(OCC(=O)c2ccccc2)cc1 [Compound 6b, 5-Chloro-3-{4-[2-oxo-2 phenylethoxy]benzylidene}indolin-2-one]	39.5

Tested on: not given
Experiment: not given
Conditions: not given

Compound	melting point [°C]
O=C1Nc2ccc(Cl)cc2C1=Cc1ccc(OCC(=O)c2ccccc2)cc1 [Compound 6b, 5-Chloro-3-{4-[2-oxo-2 phenylethoxy]benzylidene}indolin-2-one]	189 to 191

Tested on: SNB-75 cells (CNS cancer cell line)
Experiment: NCI one-dose assay, SNB-75
Assay type: cell-based
Conditions: Homo sapiens; SNB-75 (CNS Cancer), 10 uM single dose; read-out: Growth inhibition %
Procedure: as §1, §2

Compound	inhibition at 10 µM [%]
O=C1Nc2ccc(Cl)cc2C1=Cc1ccc(OCC(=O)c2ccccc2)cc1 [Compound 6b, 5-Chloro-3-{4-[2-oxo-2 phenylethoxy]benzylidene}indolin-2-one]	31.1
